Measured values as given in patent publication US20240344059A1, “Gene Editing of Regulatory Elements” (Vertex Pharmaceuticals Incorporated, priority 2021, published 2024).

system: CUG foci in myonuclei of DM1 patient myotubes; assay: FISH staining of CUG RNA foci (SaCas9/SluCas9 sgRNA pairs); format: cell-based, human; parameters: average Foci reduction: concentration or dose not given beside the values; conditions: myonuclei of DM1 patient myotubes
Method: Primary myotubes were fixed for 15 min with 4% paraformaldehyde (PFA) and washed five times with 1×PBS for 5 min each at room temperature. Before staining, cells were permeabilized with 0.5% triton X-100 in 1×PBS for 5 min at room temperature, and then washed with 30% formamide and 2× saline-sodium citrate (SSC) mixture for 10 min at room temperature. Cells were then stained with 1 ng/μL of Cy3-PNA(CAG)5 probe (PNA Bio, F5001) diluted in 30% formamide, 2×SSC, 2 μg/mL BSA, 66 μg/mL yeast tRNA, and 2 mM vanadyl complex for 15 min at 80° C. Following probe staining, cells were then washed in 30% formamide and 2×SSC mixture for 30 min at 60° C., then washed in 30% formamide and 2×SSC mixture for 30 min at 55° C., and then washed in 1×SSC solution for 10 min at room temperature, and finally washed in 1×PBS for 10 min at room temperature. For staining of myotube nuclei, cells were stained with anti-Myogenin antibody diluted in 1% bovine serum albumin (BSA) for overnight at 4° C. and washed twice with 1×PBS for 5 min each at room temperature. Cells were then incubated with the secondary antibody goat anti-rabbit Alexa 488 (Thermo Fisher, A32731) diluted in 1% BSA for 1 hr at room temperature and washed twice with 1×PBS for 5 min each at room temperature. Next, cells were stained with Hoechst solution (Thermo Fisher, H3569) at 0.1 mg/ml for 5 min and washed once with 1×PBS for 5 min. PBS was aspirated and fresh 100 μl of fresh PBS was added to each well. High-throughput acquisition of images was completed with the ImageXpress Micro Confocal High-Content Imaging System (Molecular Devices). RNA foci quantifications were accomplished with a customized analysis module of the MetaXpress program (Molecular Devices).
Each sgRNA pair consisting of one upstream sgRNA and one downstream sgRNA were assembled with recombinant SaCas9 or SluCas9 protein, respectively, into a ribonucleoprotein (RNP) complex and delivered into primary DM1 patient myoblasts with Amaxa 4D-Nucleofector. Post nucleofection, myoblasts were divided into 6 groups and were treated with DMSO (Groups 1-3) or 3 μM of DNA-dependent Protein Kinase Inhibitor (DNA-PKi) Compound 6 (Group 4-6) for 48 hrs. DNA-PKi was used to boost the excision efficiency and to better understand the contribution of E-boxes to DMPK transcription. 72 hrs post nucleofection, myoblasts from Groups 1 and 4 were collected for genomic DNA isolation, whereas the rest of the groups were subjected to myogenic differentiation to form myotubes. The myotubes were collected on Day 15 post nucleofection (Day 12 post differentiation) for mRNA isolation (Group 2 and 5) and RNA foci staining (Groups 3 and 6) (FIG. 9).

**Q.** Which “average Foci reduction” value does the source give for “sluU3D2: SluCas9 sgRNA pair SluU3 + SluD2, delivered as RNP (guide 1 TCTCTGCACCCCGCCTCAGGGT; guide 2 GAAGAACCCAAAGTTGTCCCTC; delivered as SaCas9 RNP, further chemistry not given here)” here?
**A.** ~50%

**Q.** With “saU5D1: SaCas9 sgRNA pair SaU5 + SaD1, SEQ ID NOs 1304/1305, delivered as RNP (guide 1 CCATAGAGCCCACTTTTGGGGG; guide 2 CTGGTTCTCCCACAGGGCCCGC; delivered as SaCas9 RNP, further chemistry not given here)” as the substance, how does the “average Foci reduction” value read?
**A.** ~50%

**Q.** “SaU1DI: SaCas9 sgRNA pair SaU1 + SaD1, SEQ ID NOs 1300/1305, delivered as RNP (guide 1 ATGGCCTCTCTGCACCCCGCCT; guide 2 CTGGTTCTCCCACAGGGCCCGC; delivered as SaCas9 RNP, further chemistry not given here)” was tested. Which “average Foci reduction” value did it give?
**A.** ~50%

**Q.** With “SaU3D3: SaCas9 sgRNA pair SaU3 + SaD3, SEQ ID NOs 1302/1307, delivered as RNP (guide 1 TCTCTGCACCCCGCCTCAGGGT; guide 2 CTGCGATCCAGGAGGGACAACT; delivered as SaCas9 RNP, further chemistry not given here)” as the substance, how does the “average Foci reduction” value read?
**A.** ~50%

**Q.** “sluU3D3: SluCas9 sgRNA pair SluU3 + SluD3, delivered as RNP (guide 1 TCTCTGCACCCCGCCTCAGGGT; guide 2 CTGCGATCCAGGAGGGACAACT; delivered as SaCas9 RNP, further chemistry not given here)” was tested. Which “average Foci reduction” value did it give?
**A.** ~50%

**Q.** Which “average Foci reduction” value does the source give for “SaU3D1: SaCas9 sgRNA pair SaU3 + SaD1, SEQ ID NOs 1302/1305, delivered as RNP (guide 1 TCTCTGCACCCCGCCTCAGGGT; guide 2 CTGGTTCTCCCACAGGGCCCGC; delivered as SaCas9 RNP, further chemistry not given here)” here?
**A.** ~50%

**Q.** “sluU64D34: control CTG repeat excision SluCas9 sgRNA pair, SEQ ID NOs 1497 and 1498 (guide 1 GGGGCTCGAAGGGTCCTTGTAG; guide 2 CGCGCCAGACGCTCCCCAGAGC; listed as DNA, chemistry not given here) [reference compound]” was tested. Which “average Foci reduction” value did it give?
**A.** ~50%
